In patent publication US20230212156A1 (FERMION OY, priority 2020, published 2023):

Tests used:
[1] = alcohols, esters, ethers and hydrocarbons; cited from earlier work
[2] = Particle size distribution by laser light diffraction (Beckman Coulter LS 230); conditions: for Particle size / particle size distribution by laser light diffraction, in words: based on FIGS. 1-4; for Dv10 / Dv50 / Dv90: volume weighted, Fraunhofer model, suspended in glycerol and water (1:1), 100 mg sample
[3] = 10 g sample, 3 min sieving; for Particle size distribution (Alpine AJS) <425 μm: mass fraction passing 425 μm sieve; for Particle size distribution (Alpine AJS) >75 μm: mass fraction retained on 75 μm sieve; for Particle size distribution (Alpine AJS) >180 μm: mass fraction retained on 180 μm sieve
Source text: In general, the method for carrying out an air jet sieving procedure is as follows.
Together with sample material the sieve is placed on the unit and covered with a lid. A powerful industrial vacuum cleaner generates a strong jet of air which disperses the particles on the sieve through the slotted nozzle rotating below the sieve mesh. Thus the particles are dispersed with each rotation and are distributed over the complete sieve surface. The jet of air causes a continuous new orientation of the particles on the sieve surface. Particles with sizes smaller than the sieve apertures are sucked in by the vacuum cleaner. When using sieves of certain height (e.g. 25 mm height), the inflowing air causes the particles to impact on the lid, thereby helping to destroy agglomerates. The material remaining on the sieve can then be weighed, allowing the amount of the sample having a particle size greater than the aperture of the mesh to be calculated.
Preferably, the sample amount is representative of the sample, and has a mass of at least 10 g. Thus, in one embodiment, the sample amount is 10 g. In this or any other embodiment, sieving time is suitably 3 minutes.
The sieves for use in the air jet sieving method are woven metal sieves. The technical requirements of the test sieves are specified in ISO standard ISO 3310-1:2016 Test sieves—Technical requirements and testing—Part 1: Test sieves of metal wire cloth. The sieves are also according to standard ASTM E11.
The sieving is done according to the process described in Ph.Eur. 2.9.38 Particle-size distribution estimation by analytical sieving. Air jet sieving method is used to determine the mass distribution of particles.
Sieving was done using woven metal sieves according to ISO standard ISO 3310-1:2016 (Test sieves—Technical requirements and testing—Part 1: Test sieves of metal wire cloth). The sieving was done using a single sieve at a time using the appropriate sieve size (75 gm, 180 gm, 425 gm). The sieving was done according to the process described in Ph.Eur. 2.9.38 (Particle-size distribution estimation by analytical sieving).
The sieve was tared. 10 grams of the particle mixture was weighed on the sieve. The sieve was placed on air jet sieve unit and covered with a lid. The vacuum cleaner was switched on, thereby creating a vacuum inside the sieving chamber. The sieving under vacuum was continued for 3 minutes. The finest particles were pulled downwards trough the sieve and the coarse particles remained on the sieve. At the end of the sieving process, the sieve was weighed and the mass of particles remained on the sieve was determined. The sieving process was done as described above using one sieve at a time until the particle size distribution was determined.

SMILES | Solubility in most organic solvents [1] | Particle size / particle size distribution by laser light diffraction, in words [2] | Particle size distribution (Alpine AJS) <425 μm [3] [%] | Particle size distribution (Alpine AJS) >75 μm [3] [%] | Particle size distribution (Alpine AJS) >180 μm [3] [%] | Dv10 [2] [μm] | Dv50 [2] [μm] | Dv90 [2] [μm]
O=C1CN(/N=C/c2ccc([N+](=O)[O-])o2)C(=O)N1 [Nitrofurantoin anhydrate, 1-[[(5-nitro-2-furanyl)methylene]amino]-2,4-imidazolidinedione] | sparingly soluble |  |  |  |  |  |  | 
O=C1CN(/N=C/c2ccc([N+](=O)[O-])o2)C(=O)N1 [Comparison example 8, nitrofurantoin anhydrate, reference compound] |  | smaller than in example 2 |  |  |  |  |  | 
O=C1CN(/N=C/c2ccc([N+](=O)[O-])o2)C(=O)N1 [Example 5b, nitrofurantoin anhydrate] |  |  | 98 | 95 | 52 |  |  | 
O=C1CN(/N=C/c2ccc([N+](=O)[O-])o2)C(=O)N1 [Example 3, nitrofurantoin anhydrate] |  |  | 98 | 97 | 68 |  |  | 
O=C1CN(/N=C/c2ccc([N+](=O)[O-])o2)C(=O)N1 [Example 7, nitrofurantoin anhydrate] |  | smaller than in example 2 | 99 | 94 | 36 |  |  | 
O=C1CN(/N=C/c2ccc([N+](=O)[O-])o2)C(=O)N1 [Example 4, nitrofurantoin anhydrate] |  |  | 98 | 99 | 80 |  |  | 
O=C1CN(/N=C/c2ccc([N+](=O)[O-])o2)C(=O)N1 [Example 2c, nitrofurantoin anhydrate] |  | narrow particle size distribution | 95 | 98 | 70 | 118 | 252 | 466
O=C1CN(/N=C/c2ccc([N+](=O)[O-])o2)C(=O)N1 [Comparison Example 9, nitrofurantoin anhydrate, reference compound] |  |  | 27 | 99 | 89 |  |  | 
O=C1CN(/N=C/c2ccc([N+](=O)[O-])o2)C(=O)N1 [Example 6, nitrofurantoin anhydrate] |  | smaller than in example 2 | 98 | 87 | 10 |  |  | 
O=C1CN(/N=C/c2ccc([N+](=O)[O-])o2)C(=O)N1 [Example 2b, nitrofurantoin anhydrate] |  | narrow particle size distribution | 98 | 98 | 67 | 163 | 348 | 667
O=C1CN(/N=C/c2ccc([N+](=O)[O-])o2)C(=O)N1 [Example 5c, nitrofurantoin anhydrate] |  |  | 99 | 93 | 51 |  |  | 
O=C1CN(/N=C/c2ccc([N+](=O)[O-])o2)C(=O)N1 [Example 5a, nitrofurantoin anhydrate] |  |  | 97 | 96 | 51 |  |  | 
O=C1CN(/N=C/c2ccc([N+](=O)[O-])o2)C(=O)N1 [Example 1, nitrofurantoin anhydrate] |  |  | 96 | 99 | 76 |  |  | 
O=C1CN(/N=C/c2ccc([N+](=O)[O-])o2)C(=O)N1 [Example 2a, nitrofurantoin anhydrate] |  | narrow particle size distribution | 95 | 98 | 72 | 126 | 264 | 448
